Assay results published in PubChem BioAssay (NCI).
Several values for one entry are separate records, joined by “and”; a condition that tells them apart may be missing. Equal values may be shown once.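 Step 1: Grow cells in 96-well plates. Step 2: Expose to compound for 48 hours at 5 concentrations. Step 3: Interpolate endpoints linearly; if unreached, use highest concentration. GI50 marks 50% less growth. TGI denotes the concentration required for complete inhibition of growth.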

Experiments:
Experiment in all cases: NCI-60 cell line screen, 48 h
HL-60(TB) leukemia = tested on: HL-60(TB) leukemia
LOX IMVI melanoma = tested on: LOX IMVI melanoma
SF-295 CNS = tested on: SF-295 CNS
NCI/ADR-RES ovarian = tested on: NCI/ADR-RES ovarian
SW-620 colon = tested on: SW-620 colon
BT-549 breast = tested on: BT-549 breast
786-0 renal = tested on: 786-0 renal
MALME-3M melanoma = tested on: MALME-3M melanoma
A498 renal = tested on: A498 renal
SK-MEL-28 melanoma = tested on: SK-MEL-28 melanoma

Row | SMILES | GI50 (HL-60(TB) leukemia) | TGI (HL-60(TB) leukemia) | GI50 (LOX IMVI melanoma) | TGI (LOX IMVI melanoma) | GI50 (SF-295 CNS) | TGI (SF-295 CNS) | GI50 (NCI/ADR-RES ovarian) | GI50 (SW-620 colon) | TGI (SW-620 colon) | GI50 (BT-549 breast) | TGI (BT-549 breast) | GI50 (786-0 renal) | TGI (786-0 renal) | GI50 (MALME-3M melanoma) | TGI (MALME-3M melanoma) | GI50 (A498 renal) | TGI (A498 renal) | GI50 (SK-MEL-28 melanoma) | TGI (SK-MEL-28 melanoma) | TGI (NCI/ADR-RES ovarian)
1 | Cc1cc2c3c(nc4ccccc42)C(=O)c2cccnc2-c3n1 | 135 nM | 1.36 µM | 144 nM | 0.524 µM | 541 nM | 1.91 µM | 489 nM | 170 nM | 1.01 µM | 1150 nM | 2.41 µM | 148 nM | 0.823 µM | 426 nM | 1.39 µM | 966 nM | 4.12 µM | 976 nM | 2.68 µM | –
2 | C/C=C(/C)C(=O)OC1C=C(CO)C(=O)C(OC(=O)C2(C)OC2C)C1C(C)C (centres undefined) | 1160 nM | 6.45 µM | 1710 nM | 3.3 µM | 2620 nM | 8.16 µM | 3180 nM | 1980 nM | 4.16 µM | 2020 nM | 4.35 µM | 1790 nM | 3.24 µM | 1740 nM | 3.53 µM | 1740 nM | 3.9 µM | 1780 nM | 3.33 µM | 17.4 µM
3 | O=C(Nc1nc2ccc(OC(F)(F)F)cc2s1)c1ccc(F)cc1 | 3040 nM | 9.29 µM | 3210 nM | 9.03 µM | 2540 nM | 9.35 µM | 3350 nM | 3740 nM | > 100 µM | 3760 nM | 54.6 µM | 3470 nM | > 100 µM | 2930 nM | 8.06 µM | 2930 nM | 9.2 µM | 3600 nM | > 100 µM | 16.4 µM
4 | CC[C@@]1(O)C(=O)OCc2c1cc1n(c2=O)Cc2cc3cc(O)ccc3nc2-1 | 18.7 nM | 0.135 µM | – | 1.17 µM and 0.224 µM | 28.2 nM and 29 nM | 0.799 µM and 3.91 µM | – | 17.9 nM and < 15.4 nM | 22.9 µM and 3.78 µM | – | 26.6 µM | – | 0.9 µM | 56.7 nM | 1.45 µM and 0.877 µM | 195 nM and 45.5 nM | 0.703 µM and 0.453 µM | 166 nM and 264 nM | 10 µM and > 38.9 µM | 0.225 µM and 0.109 µM
5 | CCOC(=O)C(Cc1ccccc1)n1c(O)c(/C=N/c2ncc(Cc3ccc(Cl)cc3Cl)s2)sc1=S (centres undefined) | 2290 nM | 7.06 µM | 3440 nM | 16.5 µM | 2310 nM | 6.84 µM | 2560 nM | 3450 nM | > 100 µM | 2370 nM | 8.23 µM | 3150 nM | > 100 µM | 2770 nM | 9.25 µM | 1580 nM | 7.64 µM | 2610 nM | 26.4 µM | 15.1 µM
6 | COC(=O)C1C(=O)C(C(=O)OC)C2CCC1N2C (centres undefined) | – | > 65.8 µM | – | > 83.1 µM | – | > 100 µM | – | – | > 100 µM | – | 27.3 µM | – | > 100 µM | – | 51.9 µM | – | > 100 µM | – | > 100 µM | > 100 µM
7 | Cc1cc(NS(=O)(=O)c2ccc(-c3cnc(C4CC4)o3)cc2)ccc1Cl | 232 nM | 1.23 µM | 386 nM | 14 µM | 99.5 nM | 2.57 µM | 181 nM | 130 nM | 15 µM | 1060 nM | 16.6 µM | 605 nM | 17.8 µM | 12100 nM | 26.5 µM | 82.8 nM | 0.676 µM | 2870 nM | 20 µM | 12.5 µM
8 | CC1(C)CCC2(C(=O)O)C(O)CC3(C)C(=CCC4C5(C)CCC(OC6OCC(O)C(O)C6OC6OCC(O)C(O)C6OC6OCC(O)C(OC7OC(CO)C(O)C(O)C7O)C6O)C(C)(C)C5CCC43C)C2C1 (centres undefined) | – | 48.3 µM | – | > 100 µM | – | 42.8 µM | – | – | > 100 µM | – | 86.4 µM | – | > 100 µM | – | 78.4 µM | – | 59 µM | – | > 100 µM | > 100 µM
9 | CN1C(=O)[C@@H](CC2CCCC2)N(C2CCCC2)c2nc(Nc3cc(Cl)c(O)c(Cl)c3)ncc21 | 10300 nM | 58.1 µM | 19500 nM | 49.3 µM | 23300 nM | 81.9 µM | 20700 nM | 28200 nM | > 100 µM | 18200 nM | 53.2 µM | 15200 nM | 47.2 µM | 20700 nM | 75.2 µM | 35400 nM | > 100 µM | 22600 nM | > 100 µM | > 100 µM
10 | N#C/C(=C\c1ccc(O)c(O)c1)C(=O)NCc1cccc(C(F)(F)F)c1 | 4730 nM | 92.3 µM | 11400 nM | 26.4 µM | 1970 nM | 15.7 µM | 10100 nM | 9330 nM | 31.3 µM | 5990 nM | 34.4 µM | 19000 nM | 45.5 µM | 2030 nM | 25.2 µM | 10400 nM | 26.9 µM | 21600 nM | 72.6 µM | 34.6 µM
11 | COc1cc2c3c(n(CCCNCCCCN)c(=O)c2cc1OC)-c1cc2c(cc1C3=O)OCO2 | 335 nM | – | 226 nM | 10.1 µM | 169 nM | 16.5 µM | 17300 nM | 1400 nM | 27.3 µM | 2430 nM | 16.6 µM | 2270 nM | 20.5 µM | 1660 nM | 7.32 µM | 5070 nM | 21 µM | 4490 nM | > 54.2 µM | > 90.8 µM
12 | COC(=O)COc1ccccc1/C=C1/N=C(c2ccccc2)N(c2c(C)n(C)n(-c3ccccc3)c2=O)C1=O | > 100000 nM | > 100 µM | 76500 nM | > 100 µM | > 100000 nM | > 100 µM | > 100000 nM | > 100000 nM | > 100 µM | 40700 nM | > 100 µM | > 100000 nM | > 100 µM | > 100000 nM | > 100 µM | > 100000 nM | > 100 µM | > 100000 nM | > 100 µM | > 100 µM
13 | COc1ccc(-c2cc(-c3ccc(Cl)cc3)nc(SCCCC(=O)NO)n2)cc1OC | 2480 nM | 8.56 µM | 345 nM | 1.44 µM | 926 nM | 2.75 µM | 368 nM | 578 nM | 2.76 µM | 1940 nM | 12 µM | 591 nM | 2.68 µM | 1600 nM | 5.64 µM | 1220 nM | 2.8 µM | 1200 nM | 2.71 µM | 2.54 µM
14 | Cc1ncnc2c1ccn2[C@@H]1C[C@H](Oc2cc(C(F)F)c(F)c3c2CNCC3)[C@@H](O)[C@H]1O | > 100000 nM | > 100 µM | > 100000 nM | > 100 µM | > 100000 nM | > 100 µM | > 100000 nM | > 100000 nM | > 100 µM | > 100000 nM | > 100 µM | > 100000 nM | > 100 µM | > 100000 nM | > 100 µM | > 100000 nM | > 100 µM | > 100000 nM | > 100 µM | > 100 µM
15 | Oc1c(Cl)cc(Cl)c(Cl)c1Cc1c(O)c(Cl)cc(Cl)c1Cl | 678 nM | 7.96 µM | 2390 nM | 11.2 µM | 340 nM | 2.05 µM | 453 nM | 3060 nM | 14.4 µM | 1260 nM | 10.3 µM | 1960 nM | 11.8 µM | 1660 nM | 5.93 µM | 419 nM | 7.12 µM | 2130 nM | 15.9 µM | 10.8 µM
16 | Cc1c(Br)c(Br)c2c3c1nc(N1CCNCC1)n3CCC2 | 2160 nM | 5.31 µM | 1490 nM | 2.94 µM | 1860 nM | 3.68 µM | 1800 nM | 1550 nM | 3.09 µM | 5360 nM | 20.2 µM | 2630 nM | 7.33 µM | 1850 nM | 3.41 µM | 1440 nM | 2.99 µM | 1790 nM | 3.39 µM | 3.82 µM
17 | COc1cc(C(=O)/C=C/c2cccnc2Nc2ccc(Cl)cc2)cc(OC)c1OC | 1590 nM | 5.14 µM | 1270 nM | 2.59 µM | 1930 nM | 3.97 µM | 1640 nM | 955 nM | 2.47 µM | 1500 nM | 2.85 µM | 1460 nM | 2.78 µM | 1910 nM | 3.65 µM | 1410 nM | 2.84 µM | 1720 nM | 3.12 µM | 4.4 µM
